Laboratory results: paper PMC11203719, “Mts1 (S100A4) and Its Peptide Demonstrate Cytotoxic Activity in Complex with Tag7 (PGLYRP1) Peptide” (International Journal of Molecular Sciences, 2024)
“Also recorded” adds a separate entry of the source. No end group written: not given here.

How the values were obtained:
Mts1 (S100A4) = target: T1, Mts1 (S100A4) (Homo sapiens, UniProt P26447); experiment: Microscale thermophoresis, binding to labeled Mts1
T1 construct: a functional fragment of the Tag7 protein (PGLYRP1) and a full-sized Mts1 protein (S100A4); His tag (from vector pQE-30; purified on HisTrap FF) (N); made in house; host or cells: Escherichia coli M15 (pREP4)
Protocol: To evaluate the protein–protein interaction of Mts1 with Tag7 and with peptides, 17.1, 17.1A, and 17.1B, a quantitative microscale thermophoresis method was used to reliably determine the parameters of the interaction of protein complexes.
To study the dissociation constant, purified Mts1 was fluorescently labeled using Alexa Fluor 633 (Invitrogen, Eugene, OR, USA) in accordance with the manufacturer’s protocol. Mts1 (200 nM) was preincubated for 20 min with Tag7-Mts1, 17.1-Mts1, 17.1A-Mts1, and 17.1B-Mts1 in the dark at room temperature in 16 different concentrations, obtained by sequential dilution. To study the dissociation constant of Tag7 with M7, Tag7 was fluorescently labeled using Alexa Fluor 488 (Invitrogen, Eugene, OR, USA) in accordance with the manufacturer’s protocol. Tag7 (200 nM) was preincubated for 20 min with M7 in the dark at room temperature in 16 different concentrations, obtained by sequential dilution. The samples were loaded into glass capillaries of Monolith NT Capillaries (NanoTemper Technologies GmbH, München, Germany) and analyzed by thermophoresis on a Monolith NT 115 nanotemperature apparatus (10% IR laser power). The signal quality was monitored using a NanoTemper Monolith device to detect possible ligand autofluorescence, deposition, aggregation, or ligand-induced changes in the photobleaching rate. The experiments were carried out in at least three repetitions and processed using affinity analysis software (MO Control v.1.6.1, NanoTemper Technologies GmbH, München, Germany).

L929 cells = experiment: Cytotoxicity, L929 cells; type: cell-based; details: complexes of Mts1 with 17.1A, 17.1B or full-sized Tag7; L929 cells (Figure 2b), 24 h, n = 5
TNFR1 = details: cited from earlier work; for inhibition of cytotoxic effect of TNFR1 ligands: ref [19]
Text: (§1) We investigated developing cytotoxic processes during TNFR1 activation and found two new proteins interacting with this receptor: the immune system regulator PGLYRP1 (Tag7) and DNA-hydrolyzing autoantibodies. […] For the manifestation of Tag7 cytotoxic action, the presence of a coactivator, stimulating cytotoxicity, is necessary. During antitumor studies, a cytotoxic complex released by human ... || Structural and functional analyses of Tag7 made it possible to localize the epitope of this protein necessary for interaction with TNFR1 and Hsp70. […] It was also possible to separate the activities of this bifunctional peptide.

Hsp70 = details: ref [19]; cited from earlier work
Text: Structural and functional analyses of Tag7 made it possible to localize the epitope of this protein necessary for interaction with TNFR1 and Hsp70. […] It was also possible to separate the activities of this bifunctional peptide.

[1] = system: TNFR1-positive tumor cells; details: cited from earlier work
Text: as §1

lymphocytes = details: ref [22]; cited from earlier work
Text: (§2) During a study on the anticancer effect of the Tag7-Hsp70 complex on metastatic cells, the second partner of the Tag7 protein was identified. Tag7 interacts with Mts1 (metastasin 1, S100A4), a member of the S-100 family involved in metastasis processes. Both proteins form the Tag7-Mts1 chemotactic complex.

[2] = system: TNFR1 on the surface of HEK293T cells; experiment: Cross-linking (BS3) to TNFR1 on cell surface, anti-TNFR1 pull-down, Western blot; type: binding, human; details: 17.1-Mts1 at 1 nM, anti-TNFR1 beads
Protocol: We investigated the ability of peptide 17.1 to form a complex with Mts1 and TNFR1 on the cell surface. The 17.1-Mts1 complex was added to HEK293T cells with TNFR1s on their surface. After incubation, a crosslinking agent (BS^3) was added, forming covalent bonds between molecules located at a distance of less than 1 nm at the time of addition. Next, the cells were lysed, and membrane proteins were precipitated using anti-TNFR1 antibodies conjugated with magnetic beads. The obtained material was separated using SDS electrophoresis and detected using Western blotting with polyclonal antibodies to Mts1 or Tag7.
A column with CNBr-activated Sepharose 4B (GE Healthcare, Chicago, IL, USA) conjugated with 17.1 was prepared as described in accordance with the manufacture’s protocol. The recombinant Mts1 protein was loaded into a column with 17.1-Sepharose 4B. Then, the material was extensively washed with PBS plus 0.5 M NaCl, followed by PBS, eluted with 0.25 M triethylamine, pH 12. The eluted material was resolved using 12% SDS-PAGE and applied to a nitro-cellulose membrane. […] The chemiluminescence was recorded using iBright (Thermo Fisher Scientific, Boston, MA, USA). […] Protein concentrations were quantified using a Bradford assay kit (Thermo Fisher Scientific, Carlsbad, CA, USA). […]

Tag7-Hsp70 complex = details: excess of Mts1; ref [22]; cited from earlier work
Text: as §2

Mts1 = experiment: Affinity chromatography on 17.1-Sepharose with Western blot for Mts1; type: binding, human; details: recombinant Mts1 100 ng, 17.1 immobilized on CNBr-activated Sepharose; eluted 0.25 M triethylamine; Mts1 eluted as tetramer
Protocol: In the previous section, we noted the competition between Hsp70 and Mts1 for the binding center of Tag7. We have shown that Hsp70 interacts with peptide 17.1, which is located at the C-terminal region of the polypeptide chain Tag7. […] The recombinant Mts1 protein (100 ng total protein, 0.1 mg/mL) was applied to CNBr-activated Sepharose with immobilized peptide 17.1. The bound proteins were eluted and analyzed using SDS-PAGE and a subsequent Western blot test with specific anti-Mts1 antibodies. It was shown that Mts1 is present in the eluate in the form of a tetramer (Figure 1).
A column with CNBr-activated Sepharose 4B (GE Healthcare, Chicago, IL, USA) conjugated with 17.1 was prepared as described in accordance with the manufacture’s protocol. The recombinant Mts1 protein was loaded into a column with 17.1-Sepharose 4B. Then, the material was extensively washed with PBS plus 0.5 M NaCl, followed by PBS, eluted with 0.25 M triethylamine, pH 12. The eluted material was resolved using 12% SDS-PAGE and applied to a nitro-cellulose membrane. […] The chemiluminescence was recorded using iBright (Thermo Fisher Scientific, Boston, MA, USA). […] Protein concentrations were quantified using a Bradford assay kit (Thermo Fisher Scientific, Carlsbad, CA, USA). […]

T1 sequence (P26447 whole entry, the tested form may be a part): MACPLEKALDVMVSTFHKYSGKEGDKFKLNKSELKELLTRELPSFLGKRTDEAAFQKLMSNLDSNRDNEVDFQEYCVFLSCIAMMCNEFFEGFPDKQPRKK

RSNYVLKG [17.1A]
affinity for Mts1 (in words) (Mts1 (S100A4)): significantly higher apparent Kd; also recorded: low affinity | cytotoxic activity in complex with Mts1 (L929 cells): does not contribute to the appearance of cytotoxicity | inhibition of cytotoxic effect of TNFR1 ligands (TNFR1): responsible for binding to TNFR1 and inhibiting cytotoxicity

HRDVQRT [17.1B]
affinity for Mts1 (in words) (Mts1 (S100A4)): highly specific | affinity for Hsp70 (Hsp70): high affinity for Hsp70

Tag7-Mts1: complex of full-sized Tag7 with Mts1
Kd (Mts1 (S100A4); first-named partner titrated (16 concentrations) to Alexa Fluor 633-labeled Mts1 (200 nM), 20 min, room temperature, at least three repetitions, mean ± SD): 9.21 ± 1.5 µM | cytotoxic activity ([1]; previous study, ref [22]): no cytotoxic activity | chemotactic activity (lymphocytes): induces the movement of lymphocytes along the concentration gradient of this complex

Mts1: recombinant human Mts1 (S100A4) protein
interaction with TNFR1 on cell surface [2]: binds to the TNFR1 receptor on the cell surface | displacement of Hsp70 from Tag7-Hsp70 complex (Tag7-Hsp70 complex): displaces Hsp70 from the Tag7-Hsp70 complex

SNYVLKGHRDVQ [17.1]
affinity for Mts1 (in words) (Mts1 (S100A4)): highly specific | binding to Mts1 (Mts1): 17.1 binds to Mts | death of tumor cells in combination with Hsp70 ([1]; in combination with Hsp70, ref [19]): induces the death of tumor cells | inhibition of cytotoxic effect of TNFR1 ligands (TNFR1): inhibits the cytotoxic effect of TNFR1 ligands

Tag7: recombinant full-size Tag7 protein (PGLYRP1)
affinity for Mts1 (in words) (Mts1 (S100A4)): significantly higher apparent Kd | cytotoxic activity in complex with Mts1 (L929 cells): does not have a cytotoxic effect on cells; also recorded: does not form a cytotoxic complex with the Mts1 protein | inhibition of cytotoxic activity of TNF and other TNFR1 ligands (TNFR1; previous work, reference not clearly printed): acts as an inhibitor of the cytotoxic activity of TNF and other TNFR1 ligands
